Results on 4 compounds are retold here after PubChem BioAssay (NCI).

Test systems include CCRF-CEM leukemia; K-562 leukemia; M14 melanoma; MALME-3M melanoma; NCI-H226 lung; SF-295 CNS; SK-OV-3 ovarian; SR leukemia; U251 CNS; UACC-62 melanoma.
What all share (experiment): NCI anticancer screen, dose series, 48 h

SMILES strings stand for the structures. Values joined by “and” are separate entries in the source; they are usually repeats but may differ in a detail not shown here. Equal entries are not always repeated.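 Cultured in 96-well plates, cells were exposed to test compound for 48 hours across five concentrations. Abbreviation: GI50, concentration required for 50% inhibition of growth. TGI denotes the concentration required for complete inhibition of growth.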 A value given as a limit tells only on which side of the number the result lay.

For `CN(C)c1ccc(/C=C/C2=[N+](C)c3ccccc3C2(C)C)cc1`, the GI50 with CCRF-CEM leukemia is 0.456 µM; in the experiment on K-562 leukemia, 0.512 µM; in the experiment with M14 melanoma it was 0.75 µM; in the experiment on MALME-3M melanoma it was 0.662 µM; with NCI-H226 lung, 1.57 µM; in the experiment on SF-295 CNS, 1.12 µM. Further, the GI50 is 0.729 µM in the experiment with SK-OV-3 ovarian, 0.13 µM in the experiment on SR leukemia, 0.353 µM in the experiment with U251 CNS and 1.36 µM with UACC-62 melanoma. Moreover, the TGI is > 100 µM with CCRF-CEM leukemia; > 100 µM in the experiment on K-562 leukemia; 14.4 µM in the experiment with M14 melanoma; 13.1 µM in the experiment with MALME-3M melanoma; 26.1 µM with NCI-H226 lung; 6.64 µM in the experiment with SF-295 CNS. The TGI in the experiment with SK-OV-3 ovarian is 4.19 µM; in the experiment on SR leukemia, 13.9 µM; with U251 CNS, 12.6 µM; with UACC-62 melanoma, 19.2 µM.
With `COC(=O)C(Cc1nc2ccccc2nc1C)/C(=N\NC(N)=O)C(=O)Nc1cccc([N+](=O)[O-])c1` (stereo unspecified), the TGI with CCRF-CEM leukemia, with K-562 leukemia, in the experiment on M14 melanoma, with MALME-3M melanoma, in the experiment with NCI-H226 lung and with SF-295 CNS was > 100 µM throughout. Moreover, the TGI in the experiment with SK-OV-3 ovarian, in the experiment on SR leukemia, in the experiment with U251 CNS and in the experiment with UACC-62 melanoma was > 100 µM in each case.
For `COc1ccc(C2C(C)C(=O)C(C)C(c3ccc(OC)cc3)N2N=O)cc1` (stereo unspecified), the TGI in the experiment on CCRF-CEM leukemia is > 1000 µM; in the experiment on K-562 leukemia, > 1000 µM; with M14 melanoma it was 750 µM and > 732 µM; with MALME-3M melanoma, > 700 µM; in the experiment on NCI-H226 lung it was > 75 µM and 457 µM; in the experiment with SF-295 CNS, 491 µM. Further, the TGI with SK-OV-3 ovarian is > 82.5 µM and 626 µM and 980 µM; in the experiment with SR leukemia, > 1000 µM; with U251 CNS it was 750 µM and 428 µM; in the experiment on UACC-62 melanoma, > 750 µM. Further, the GI50 was > 750 µM with K-562 leukemia; > 88.4 µM with NCI-H226 lung; 20.7 µM with SF-295 CNS; > 47.5 µM and 220 µM in the experiment on SK-OV-3 ovarian; 35 µM and 85.9 µM in the experiment on U251 CNS; > 750 µM in the experiment with UACC-62 melanoma.
Regarding `O=c1oc2ccc(Br)cc2c(=O)n1-c1ccc(I)cc1F`, the GI50 in the experiment on CCRF-CEM leukemia was 0.625 µM; in the experiment with K-562 leukemia, 0.389 µM; in the experiment with M14 melanoma it was 0.416 µM; in the experiment on MALME-3M melanoma, 0.32 µM; with NCI-H226 lung, 0.66 µM; in the experiment on SF-295 CNS, 1.5 µM. Besides, the GI50 in the experiment with SK-OV-3 ovarian was 0.271 µM; in the experiment on SR leukemia, 0.417 µM; in the experiment with U251 CNS, 0.375 µM; in the experiment with UACC-62 melanoma, 0.264 µM. Also, the TGI in the experiment on CCRF-CEM leukemia was 6.82 µM; with K-562 leukemia, > 100 µM; in the experiment on M14 melanoma it was 4.39 µM; in the experiment on MALME-3M melanoma it was 1.27 µM; with NCI-H226 lung, 3.36 µM; in the experiment with SF-295 CNS, 3.12 µM. For the same compound, the TGI in the experiment on SK-OV-3 ovarian is 2.13 µM; in the experiment on SR leukemia, 21.9 µM; in the experiment with U251 CNS it was 19.3 µM; with UACC-62 melanoma, 0.886 µM.
